Key:
[1] = test system: actinic keratosis, face and scalp; details: earlier Phase 3 studies, cited from earlier work
[2] = Phase 3 study: adverse events related to trial medication; format: in vivo, human; details: face or scalp, week 11 data
Procedure: (§1) For safety, AEs and LSRs will be recorded. Local skin responses will be graded using a scale that was developed by the sponsor and used in the previous clinical studies. This is a defined grading scale to ensure that a clear and systematic assessment of LSRs is performed. The LSR Grading Scale employs a 0 to 4 scoring system for each category to be assessed with photographs and definitions of each grade. The LSR Grading Scale has been published previously.
Local skin responses will be converted into MedDRA preferred terms applying the following conversions seen below. These adverse events will be reported separately from adverse events recorded on the adverse event form in the CRF.
(§2) For safety, AEs and LSRs were recorded. Local skin responses were graded using a scale that was developed by the sponsor and used in the previous clinical studies. This was a defined grading scale to ensure that a clear and systematic assessment of LSRs is performed. The LSR Grading Scale employs a 0 to 4 scoring system for each category to be assessed with photographs and definitions of each grade.
The most common adverse effect is application site pain. None of the severe adverse events were related to trial medication. All adverse effects related to trial medication were resolved at week 11.

[3] = Phase 3 study: local skin responses (composite LSR score); format: in vivo, human
Procedure: as §1
The incidence and grade of LSRs in the LSR safety set will be summarized by treatment arm overall and at each visit by anatomical location. Local skin response grades will be summarized by frequency counts and descriptive statistics by treatment arm and visit for each of the six individual LSRs: erythema, flaking/scaling, crusting, swelling, vesiculation/pustulation, and erosion/ulceration.
A composite (sum) score will be obtained by summing the six individual LSR scores at each visit. The composite score and change from baseline will be summarized by treatment arm at each visit using descriptive statistics. The first visit at which the highest sum score is attained will be summarized by treatment arm. For those subjects whose LSR sum score increased in intensity from baseline, the first visit at which the LSR returned to the baseline intensity will be presented by treatment arm.
as §2

[4] = test system: actinic keratosis (AK) lesions on the face or scalp; format: in vivo, human
Procedure: In the context of the present invention partial clearance of AKs are defined as 75% or greater reduction in the number of clinically visible AKs in the selected treatment area from baseline.
A Phase 3, multi-centre, randomised, two-arm, parallel group, double-blinded, vehicle-controlled, 12-month study is conducted (See FIG. 1). Eligible subjects with 4 to 8 clinically typical, visible and discrete AKs within a contiguous 25 cm^2 treatment area on the face and scalp will be randomised to one of two arms. Treatment Arm A will receive cryotherapy to all visible AKs (4-8 lesions, “baseline lesions”) in the selected treatment area then, after 2-4 weeks healing time, field treatment with ingenol mebutate (PEP005 Gel) 0.015% once daily for 3 consecutive days. Treatment Arm B will receive cryotherapy to all visible AKs (4-8 lesions, “baseline lesions”) in the selected treatment area then, after 3 weeks healing time, field treatment with vehicle gel once daily for 3 consecutive days.
Eligible subjects include male or female, at least 18 years of age, with 4 to 8 clinically typical, visible, and discrete AK lesions within a 25 cm^2 contiguous treatment area on the face or scalp. Exclusion criteria stipulate restrictions for prohibited treatments and procedures prior to study entry. This sample is representative of the population which will be treated for AK.
A Phase 3, multi-centre, randomised, two-arm, parallel group, double-blinded, vehicle-controlled, 12-month study is being conducted (See FIG. 1). Eligible subjects with 4 to 8 clinically typical, visible and discrete AKs within a contiguous 25 cm^2 treatment area on the face and scalp were randomised to one of two arms. Treatment Arm A received cryotherapy to all visible AKs (4-8 lesions, “baseline lesions”) in the selected treatment area then, after 2-4 weeks healing time, they received field treatment with ingenol mebutate (PEP005 Gel) 0.015% once daily for 3 consecutive days. […]

## C/C=C(/C)C(=O)O[C@H]1C(C)=C[C@]23C(=O)[C@@H](C=C(CO)[C@@H](O)[C@]12O)[C@H]1[C@@H](C[C@H]3C)C1(C)C [ingenol mebutate]
[1]; 12 month following treatment
  sustained clearance: around 50%
[1]; face and scalp
  complete field clearance: 37-47%
[2]
  tolerability of treatment after cryosurgery: well tolerated
[3]; baseline, before cryosurgery and topical treatment
  composite LSR score at baseline: 2.2
[3]; peak at visit 3
  mean (SD) composite LSR score at peak: 8.5 (4.7)
[3]; week 5, 2 weeks after topical treatment
  mean composite LSR score, course after topical treatment: return to a score similar to that of earlier visits
[4]; 72 h
  percentage of patients with complete clearance (no clinically visible AKs): 60.5%
  percentage of patients with partial clearance (75% or greater reduction in AKs): 77.8%
[4]; week 11
  Median percent reduction from baseline in AK lesion count: 100.0%

Reference: patent US20150025139A1, “INGENOL MEBUTATE IN COMBINATION WITH CRYOTHERAPY FOR THE TREATMENT OF ACTINIC KERATOSIS” (LEO Laboratories Limited, priority 2012, published 2015)
